Laboratory results published in ChEMBL document CHEMBL3046109, “A Method for Monitoring the Sensitivity of Botrytis cinerea to Mepanipyrim” (2004).

Experiments:
Assay type in all cases: functional
Botrytis cinerea [1] = assay: Fungicidal activity against anilinopyrimidine-sensitive Botryotinia fuckeliana KU-01 infected in strawberry fruit assessed as inhibition of mycelial growth at 200 mg/l treated 2-3 hr before challenge measured after 5 days; conditions: read-out: GI
Botrytis cinerea [2] = assay: Fungicidal activity against anilinopyrimidine-sensitive Botryotinia fuckeliana KU-01 isolated from grape plant assessed as inhibition of mycelial growth at 10 mg/l after 4 days; conditions: KU-01, 96 h, read-out: GI
Botrytis cinerea [3] = assay: Fungicidal activity against anilinopyrimidine-resistant Botryotinia fuckeliana CH164.94 isolated from grape plant assessed as inhibition of mycelial growth at 10 mg/l after 4 days; conditions: CH164.94, 96 h, read-out: GI
Botrytis cinerea [4] = assay: Fungicidal activity against anilinopyrimidine-sensitive Botryotinia fuckeliana KU-59 isolated from grape plant assessed as inhibition of mycelial growth at 0.1 mg/l after 4 days; conditions: KU-59, 96 h, read-out: GI
Botrytis cinerea [5] = assay: Fungicidal activity against anilinopyrimidine-resistant Botryotinia fuckeliana CH12.92 isolated from grape plant assessed as inhibition of mycelial growth at 100 mg/l after 4 days; conditions: CH12.92, 96 h, read-out: GI
Botrytis cinerea [6] = assay: Fungicidal activity against anilinopyrimidine-resistant Botryotinia fuckeliana CH15.93 isolated from grape plant assessed as inhibition of mycelial growth at 10 mg/l after 4 days; conditions: CH15.93, 96 h, read-out: GI
Botrytis cinerea [7] = assay: Fungicidal activity against anilinopyrimidine-sensitive Botryotinia fuckeliana KU-59 infected in strawberry fruit assessed as inhibition of mycelial growth at 200 mg/l treated 2-3 hr before challenge measured after 5 days; conditions: read-out: GI
Botrytis cinerea [8] = assay: Fungicidal activity against anilinopyrimidine-sensitive Botryotinia fuckeliana KU-59 isolated from grape plant assessed as inhibition of mycelial growth at 3 mg/l after 4 days; conditions: KU-59, 96 h, read-out: GI
Botrytis cinerea [9] = assay: Fungicidal activity against anilinopyrimidine-resistant Botryotinia fuckeliana CH164.94 isolated from grape plant assessed as inhibition of mycelial growth at 0.1 mg/l after 4 days; conditions: CH164.94, 96 h, read-out: GI
Botrytis cinerea [10] = assay: Fungicidal activity against anilinopyrimidine-resistant Botryotinia fuckeliana CH12.92 isolated from grape plant assessed as inhibition of mycelial growth at 0.3 mg/l after 4 days; conditions: CH12.92, 96 h, read-out: GI
Botrytis cinerea [11] = assay: Fungicidal activity against anilinopyrimidine-resistant Botryotinia fuckeliana CH12.92 isolated from grape plant assessed as inhibition of mycelial growth at 10 mg/l after 4 days; conditions: CH12.92, 96 h, read-out: GI
Botrytis cinerea [12] = assay: Fungicidal activity against anilinopyrimidine-resistant Botryotinia fuckeliana CH164.94 isolated from grape plant assessed as inhibition of mycelial growth at 0.3 mg/l after 4 days; conditions: CH164.94, 96 h, read-out: GI
Botrytis cinerea [13] = assay: Fungicidal activity against anilinopyrimidine-resistant Botryotinia fuckeliana CH12.92 isolated from grape plant assessed as inhibition of mycelial growth at 3 mg/l after 4 days; conditions: CH12.92, 96 h, read-out: GI
Botrytis cinerea [14] = assay: Fungicidal activity against anilinopyrimidine-resistant Botryotinia fuckeliana CH164.94 isolated from grape plant assessed as inhibition of mycelial growth at 1 mg/l after 4 days; conditions: CH164.94, 96 h, read-out: GI
Botrytis cinerea [15] = assay: Fungicidal activity against anilinopyrimidine-resistant Botryotinia fuckeliana CH12.92 infected in strawberry fruit assessed as inhibition of mycelial growth at 100 mg/l treated 2-3 hr before challenge measured after 5 days; conditions: read-out: GI
Botrytis cinerea [16] = assay: Fungicidal activity against anilinopyrimidine-sensitive Botryotinia fuckeliana KU-01 isolated from grape plant assessed as inhibition of mycelial growth at 3 mg/l after 4 days; conditions: KU-01, 96 h, read-out: GI
Botrytis cinerea [17] = assay: Fungicidal activity against anilinopyrimidine-resistant Botryotinia fuckeliana CH15.93 isolated from grape plant assessed as inhibition of mycelial growth at 1 mg/l after 4 days; conditions: CH15.93, 96 h, read-out: GI
Botrytis cinerea [18] = assay: Fungicidal activity against anilinopyrimidine-resistant Botryotinia fuckeliana CH12.92 infected in strawberry fruit assessed as inhibition of mycelial growth at 50 mg/l treated 2-3 hr before challenge measured after 5 days; conditions: read-out: GI
Botrytis cinerea [19] = assay: Fungicidal activity against anilinopyrimidine-sensitive Botryotinia fuckeliana KU-59 isolated from grape plant assessed as inhibition of mycelial growth at 1 mg/l after 4 days; conditions: KU-59, 96 h, read-out: GI
Botrytis cinerea [20] = assay: Fungicidal activity against anilinopyrimidine-resistant Botryotinia fuckeliana CH12.92 isolated from grape plant assessed as inhibition of mycelial growth at 0.1 mg/l after 4 days; conditions: CH12.92, 96 h, read-out: GI
Botrytis cinerea [21] = assay: Fungicidal activity against anilinopyrimidine-sensitive Botryotinia fuckeliana KU-01 isolated from grape plant assessed as inhibition of mycelial growth at 100 mg/l after 4 days; conditions: KU-01, 96 h, read-out: GI
Botrytis cinerea [22] = assay: Fungicidal activity against anilinopyrimidine-sensitive Botryotinia fuckeliana KU-01 infected in strawberry fruit assessed as inhibition of mycelial growth at 100 mg/l treated 2-3 hr before challenge measured after 5 days; conditions: read-out: GI
Botrytis cinerea [23] = assay: Fungicidal activity against anilinopyrimidine-resistant Botryotinia fuckeliana CH12.92 isolated from grape plant assessed as inhibition of mycelial growth at 30 mg/l after 4 days; conditions: CH12.92, 96 h, read-out: GI
Botrytis cinerea [24] = assay: Fungicidal activity against anilinopyrimidine-sensitive Botryotinia fuckeliana KU-59 infected in strawberry fruit assessed as inhibition of mycelial growth at 50 mg/l treated 2-3 hr before challenge measured after 5 days; conditions: read-out: GI
Botrytis cinerea [25] = assay: Fungicidal activity against anilinopyrimidine-sensitive Botryotinia fuckeliana KU-59 infected in strawberry fruit assessed as inhibition of mycelial growth at 100 mg/l treated 2-3 hr before challenge measured after 5 days; conditions: read-out: GI

CC#Cc1cc(C)nc(Nc2ccccc2)n1 [MEPANIPYRIM]
inhibition of growth at 200 µg/mL (Botrytis cinerea [1]): 100%
inhibition of growth at 10 µg/mL (Botrytis cinerea [2]): 100%
inhibition of growth at 10 µg/mL (Botrytis cinerea [3]): 67.1%
inhibition of growth at 0.1 µg/mL (Botrytis cinerea [4]): 86.4%
inhibition of growth at 100 µg/mL (Botrytis cinerea [5]): 70.4%
inhibition of growth at 10 µg/mL (Botrytis cinerea [6]): 72.6%
inhibition of growth at 200 µg/mL (Botrytis cinerea [7]): 100%
inhibition of growth at 3 µg/mL (Botrytis cinerea [8]): 100%
inhibition of growth at 0.1 µg/mL (Botrytis cinerea [9]): 0%
inhibition of growth at 0.3 µg/mL (Botrytis cinerea [10]): 19.8%
inhibition of growth at 10 µg/mL (Botrytis cinerea [11]): 65.7%
inhibition of growth at 0.3 µg/mL (Botrytis cinerea [12]): 0%
inhibition of growth at 3 µg/mL (Botrytis cinerea [13]): 60.1%
inhibition of growth at 1 µg/mL (Botrytis cinerea [14]): 38.3%
inhibition of growth at 100 µg/mL (Botrytis cinerea [15]): 0%
inhibition of growth at 3 µg/mL (Botrytis cinerea [16]): 100%
inhibition of growth at 1 µg/mL (Botrytis cinerea [17]): 34.9%
inhibition of growth at 50 µg/mL (Botrytis cinerea [18]): 0%
inhibition of growth at 1 µg/mL (Botrytis cinerea [19]): 100%
inhibition of growth at 0.1 µg/mL (Botrytis cinerea [20]): 0%
inhibition of growth at 100 µg/mL (Botrytis cinerea [21]): 100%
inhibition of growth at 100 µg/mL (Botrytis cinerea [22]): 100%
inhibition of growth at 30 µg/mL (Botrytis cinerea [23]): 63.2%
inhibition of growth at 50 µg/mL (Botrytis cinerea [24]): 100%
inhibition of growth at 100 µg/mL (Botrytis cinerea [25]): 100%
